Reference: patent US9120785B2, “Pyridyl aminopyridines as Syk inhibitors” (Merck Sharp & Dohme Corp., priority 2011, dated 2015)
pIC50: −log10 of the molar value.

Molecular target: recombinant human GST-Syk (Homo sapiens (Human), UniProt P43405)
Experiment: Homogeneous Time-Resolved Fluorescence (HTRF) assay for the recombinant human Syk enzyme
Type: biochemical
Settings: recombinant human GST-Syk 5 pM, ATP 25 μM, 10-dose titration; read-out: rhSyk (nM) IC50
Protocol: Homogeneous Time-Resolved Fluorescence (HTRF) Assay for the Recombinant Human Syk Enzyme:
A recombinant GST-hSyk fusion protein was used to measure potency of compounds to inhibit human Syk activity. The recombinant human GST-Syk ([…] #08-176) (5 pM final concentration) was incubated with various concentrations of the inhibitor diluted in DMSO (0.1% final concentration) for 10 minutes at room temperature in 15 mM Tris-HCl (pH 7.5), 0.01% tween 20, 2 mM DTT in 384 well plate format. To initiate the reaction the biotinylated substrate peptide (250 nM final concentration) that contains the phosphorylation site for Syk was added with magnesium (5 mM final concentration) and ATP (25 μM final concentration). Final volume of the reaction was 10 μL. Phosphorylation of the peptide was allowed to proceed for 45 minutes at room temperature. To quench the reaction and detect the phosphorylated product, 2 nM of a Europium-anti-phosphotyrosine antibody (Perkin Elmer #AD0161) and 70 nM SA-APC (Perkin-Elmer #CR130-100) were added together in 15 mM Tris pH 7.5, 40 mM EDTA, 0.01% tween 20. Final volume of the quenching solution was 10 μL. The resulting HTRF signal was measured after 30 minutes on an EnVision (Perkin-Elmer) reader using a time-resolved fluorescence protocol.

Row | SMILES | IC50 [nM]
1 | CCC(O)(c1ncc(-c2cc(C)cc(Nc3cc(C4CC4)ccn3)n2)s1)[C@H]1CC[C@H](C(N)=O)CC1 (mixture of isomers) [Example 2, racemic mixture, trans-4-[1-(5-{6-[(4-cyclopropylpyridin-2-yl)amino]-4-methylpyridin-2-yl}-1,3-thiazol-2-yl)-1-hydroxypropyl]cyclohexanecarboxamide] | 3.1
2 | CCC(O)(c1ncc(-c2cc(C)cc(Nc3cc(C4CC4)ccn3)n2)s1)[C@H]1CC[C@H](C(=O)O)CC1 (single isomer, unassigned) [Example 1, Enantiomer 1, trans-4-[1-(5-{6-[(4-cyclopropylpyridin-2-yl)amino]-4-methylpyridin-2-yl}-1,3-thiazol-2-yl)-1-hydroxypropyl]cyclohexanecarboxylic acid] | 2.9
3 | CCCCOC(=O)[C@H]1CC[C@H]([C@@](C)(O)c2ncc(-c3cc(C)cc(Nc4cc(C)c(F)cn4)n3)s2)CC1 (single isomer, unassigned) [Example 9, Enantiomer 1, butyl trans-4-[1-(5-{6-[(5-fluoro-4-methylpyridine-2-yl)amino]-4-methylpyridine-2-yl}-1,3-thiazol-2-yl)-1-hydroxyethyl]cyclohexanecarboxylate] | 278
4 | Cc1cc(Nc2cc(C(F)F)ccn2)nc(-c2cnc(C(C)(O)[C@H]3CC[C@H](C(=O)O)CC3)s2)c1 (single isomer, unassigned) [Example 14-4, trans-4-{1-[5-(6-{[4-(difluoromethyl)pyridin-2-yl]amino}-4-methylpyridin-2-yl)-1,3-thiazol-2-yl]-1-hydroxyethyl}cyclohexanecarboxylic acid] | 0.5

Same assay, conditions: recombinant human GST-Syk 5 pM, ATP 25 μM; class symbols; read-out: rhSyk activity (IC50)

Row | SMILES | pIC50
5 | CCC(O)(c1ncc(-c2cc(C)cc(Nc3cc(C4CC4)ccn3)n2)s1)[C@H]1CC[C@H](C(=O)O)CC1 (mixture of isomers) [Example 1, racemic, trans-4-[1-(5-{6-[(4-Cyclopropylpyridin-2-yl)amino]-4-methylpyridin-2-yl}-1,3-thiazol-2-yl)-1-hydroxypropyl]cyclohexanecarboxylic acid] | ≥ 7.00
6 | CCC(O)(c1ncc(-c2cc(C)cc(Nc3cc(C4CC4)ccn3)n2)s1)[C@H]1CC[C@H](C(N)=O)CC1 (mixture of isomers) [Example 2, racemic mixture, trans-4-[1-(5-{6-[(4-cyclopropylpyridin-2-yl)amino]-4-methylpyridin-2-yl}-1,3-thiazol-2-yl)-1-hydroxypropyl]cyclohexanecarboxamide] | ≥ 7.00
7 | Cc1ccnc(Nc2cc(C)cc(-c3cnc(C(C)(O)[C@H]4CC[C@H](C(=O)O)CC4)s3)n2)c1 (relative stereo) [Example 14-1, trans-4-[1-hydroxy-1-(5-{4-methyl-6-[(4-methylpyridin-2-yl)amino]pyridin-2-yl}-1,3-thiazol-2-yl)ethyl]cyclohexanecarboxylic acid] | ≥ 7.00
8 | COc1ccnc(Nc2cc(C)cc(-c3cnc(C(C)(O)[C@H]4CC[C@H](C(=O)O)CC4)s3)n2)c1 (relative stereo) [Example 14-3, trans-4-[1-hydroxy-1-(5-{6-[(4-methoxypyridin-2-yl)amino]-4-methylpyridin-2-yl}-1,3-thiazol-2-yl)ethyl]cyclohexanecarboxylic acid] | ≥ 7.00
9 | Cc1cc(Nc2cc(C)c(Cl)cn2)nc(-c2cnc(C(C)(O)[C@H]3CC[C@H](C(=O)O)CC3)s2)c1 (relative stereo) [Example 14-5, trans-4-[1-(5-{6-[(5-chloro-4-methylpyridin-2-yl)amino]-4-methylpyridin-2-yl}-1,3-thiazol-2-yl)-1-hydroxyethyl]cyclohexanecarboxylic acid] | ≥ 7.00
10 | CCCCOC(=O)[C@H]1CC[C@H](C(C)(O)c2ncc(-c3cc(C)cc(Nc4cc(C5CC5)ccn4)n3)s2)CC1 (relative stereo) [Example 14-6, butyl trans-4-[1-(5-{6-[(4-cyclopropylpyridin-2-yl)amino]-4-methylpyridin-2-yl}-1,3-thiazol-2-yl)-1-hydroxyethyl]cyclohexanecarboxylate] | 6.00 to 7.00
11 | Cc1cc(Nc2cc(C3CC3)ccn2)nc(-c2cnc(C(C)(O)[C@H]3CC[C@H](C(=O)O)CC3)s2)c1 (relative stereo) [Example 14-7, trans-4-[1-(5-{6-[(4-cyclopropylpyridin-2-yl)amino]-4-methylpyridin-2-yl}-1,3-thiazol-2-yl)-1-hydroxyethyl]cyclohexanecarboxylic acid] | ≥ 7.00
12 | Cc1cc(Nc2cc(C(C)C)ccn2)nc(-c2cnc(C(C)(O)[C@H]3CC[C@H](C(=O)O)CC3)s2)c1 (relative stereo) [Example 14-8, trans-4-{1-hydroxy-1-[5-(4-methyl-6-{[4-(propan-2-yl)pyridin-2-yl]amino}pyridin-2-yl)-1,3-thiazol-2-yl]ethyl}cyclohexanecarboxylic acid] | ≥ 7.00
13 | COC(=O)[C@H]1CC[C@H](C(O)c2ncc(-c3cc(C)cc(Nc4cc(C(F)(F)F)ccn4)n3)s2)CC1 (relative stereo) [Example 14-27, methyl trans-4-{hydroxy[5-(4-methyl-6-{[4-(trifluoromethyl)pyridin-2-yl]amino}pyridin-2-yl)-1,3-thiazol-2-yl]methyl}cyclohexanecarboxylate] | ≥ 7.00
14 | COc1ccnc(Nc2cccc(-c3cnc(C(C)(O)[C@H]4CC[C@H](C(=O)O)CC4)s3)n2)c1 (relative stereo) [Example 14-41, trans-4-[1-hydroxy-1-(5-{6-[(4-methoxypyridin-2-yl)amino]pyridin-2-yl}-1,3-thiazol-2-yl)ethyl]cyclohexanecarboxylic acid] | ≥ 7.00
15 | CC(O)(c1ncc(-c2cccc(Nc3cc(C(F)F)ccn3)n2)s1)[C@H]1CC[C@H](C(=O)O)CC1 (relative stereo) [Example 14-42, trans-4-{1-[5-(6-{[4-(difluoromethyl)pyridin-2-yl]amino}pyridin-2-yl)-1,3-thiazol-2-yl]-1-hydroxyethyl}cyclohexanecarboxylic acid] | ≥ 7.00
16 | CC(C)c1ccnc(Nc2cccc(-c3cnc(C(C)(O)[C@H]4CC[C@H](C(=O)O)CC4)s3)n2)c1 (relative stereo) [Example 14-43, trans-4-{1-hydroxy-1-[5-(6-{[4-(propan-2-yl)pyridin-2-yl]amino}pyridin-2-yl)-1,3-thiazol-2-yl]ethyl}cyclohexanecarboxylic acid] | ≥ 7.00
17 | CCC(O)(c1ncc(-c2cc(C)cc(Nc3cc(C4CC4)ccn3)n2)s1)[C@H]1CC[C@H](C(=O)O)CC1 (single isomer, unassigned) [Example 1, Enantiomer 1, trans-4-[1-(5-{6-[(4-cyclopropylpyridin-2-yl)amino]-4-methylpyridin-2-yl}-1,3-thiazol-2-yl)-1-hydroxypropyl]cyclohexanecarboxylic acid] | ≥ 7.00
18 | CCC(O)(c1ncc(-c2cc(C)cc(Nc3cc(C4CC4)ccn3)n2)s1)[C@H]1CC[C@H](C(N)=O)CC1 (single isomer, unassigned) [Example 2, Enantiomer 1, trans-4-[1-(5-{6-[(4-cyclopropylpyridin-2-yl)amino]-4-methylpyridin-2-yl}-1,3-thiazol-2-yl)-1-hydroxypropyl]cyclohexanecarboxamide] | ≥ 7.00
19 | Cc1cc(Nc2cccc(-c3cnc(C(C)(O)[C@H]4CC[C@H](C(=O)O)CC4)s3)n2)ncc1F (single isomer, unassigned) [Example 5, trans-4-[(1R or 1S)-1-(5-{6-[(5-Fluoro-4-methylpyridin-2-yl)amino]pyridin-2-yl}-1,3-thiazol-2-yl)-1-hydroxyethyl]cyclohexanecarboxylic acid] | ≥ 7.00
20 | Cc1cc(Nc2cccc(-c3cnc(C(C)(O)[C@H]4CC[C@H](C(=O)O)CC4)s3)n2)ncc1F (single isomer, unassigned) [Example 6, trans-4-[(1R or 1S)-1-(5-{6-[(5-Fluoro-4-methylpyridin-2-yl)amino]pyridin-2-yl}-1,3-thiazol-2-yl)-1-hydroxyethyl]cyclohexanecarboxylic acid] | ≥ 7.00
21 | CC(O)(c1ncc(-c2cccc(Nc3cc(C(F)(F)F)ccn3)n2)s1)[C@H]1CC[C@H](C(=O)O)CC1 (single isomer, unassigned) [Example 7, trans-4-{(1R or 1S)-1-hydroxy-1-[5-(6-{[4-(trifluoromethyl)pyridin-2-yl]amino}pyridin-2-yl)-1,3-thiazol-2-yl]ethyl}cyclohexanecarboxylic acid] | ≥ 7.00
22 | CC(O)(c1ncc(-c2cccc(Nc3cc(C(F)(F)F)ccn3)n2)s1)[C@H]1CC[C@H](C(=O)O)CC1 (single isomer, unassigned) [Example 8, trans-4-{(1R or 1S)-1-Hydroxy-1-[5-(6-{[4-(trifluoromethyl)pyridin-2-yl]amino}pyridin-2-yl)-1,3-thiazol-2-yl]ethyl}cyclohexanecarboxylic acid] | ≥ 7.00
23 | CCCCOC(=O)[C@H]1CC[C@H]([C@@](C)(O)c2ncc(-c3cc(C)cc(Nc4cc(C)c(F)cn4)n3)s2)CC1 (single isomer, unassigned) [Example 9, Enantiomer 1, butyl trans-4-[1-(5-{6-[(5-fluoro-4-methylpyridine-2-yl)amino]-4-methylpyridine-2-yl}-1,3-thiazol-2-yl)-1-hydroxyethyl]cyclohexanecarboxylate] | 6.00 to 7.00
24 | CCCCOC(=O)[C@H]1CC[C@H]([C@@](C)(O)c2ncc(-c3cc(C)cc(Nc4cc(C)c(F)cn4)n3)s2)CC1 (single isomer, unassigned) [Example 9, Enantiomer 2, butyl trans-4-[1-(5-{6-[(5-fluoro-4-methylpyridine-2-yl)amino]-4-methylpyridine-2-yl}-1,3-thiazol-2-yl)-1-hydroxyethyl]cyclohexanecarboxylate] | 6.00 to 7.00
25 | CCCCOC(=O)[C@H]1CC[C@H](C(C)(O)c2ncc(-c3cc(C)cc(Nc4cc(C(F)(F)F)ccn4)n3)s2)CC1 (single isomer, unassigned) [Example 14, Step 1, butyl trans-4-{(1R or 1S)-1-hydroxy-1-[5-(4-methyl-6-{[4-(trifluoromethyl)pyridin-2-yl]amino}pyridin-2-yl)-1,3-thiazol-2-yl]ethyl}cyclohexanecarboxylate] | 6.00 to 7.00
26 | Cc1cc(Nc2cc(C(F)F)ccn2)nc(-c2cnc(C(C)(O)[C@H]3CC[C@H](C(=O)O)CC3)s2)c1 (single isomer, unassigned) [Example 14-4, trans-4-{1-[5-(6-{[4-(difluoromethyl)pyridin-2-yl]amino}-4-methylpyridin-2-yl)-1,3-thiazol-2-yl]-1-hydroxyethyl}cyclohexanecarboxylic acid] | ≥ 7.00
